Measured values taken from US20250319211A1, “NEAR IR LUMINESCENCE AND OPTICALLY ADDRESSABLE QUANTUM SENSING AND MAGNETIC IMAGING WITH RADICALOID TETRATHIAFULVALENE TETRATHIOLATES” (The University of Chicago, priority 2022, published 2025).

Assays:
[1] = Photoluminescence quantum yield determination; type: physicochemical
Procedure: For the photoluminescence spectroscopy, all emission spectra were acquired on a Horiba Scientific PTI QuantaMaster fluorometer. Low temperature emission spectra were recorded by adding samples in 1:1 DCM:toluene into quartz EPR tubes and lowering the tube into an optical dewar filled with liquid N2. Excitation emission matrices were acquired on a Horiba Scientific Fluorolog-3 spectrofluorometer.
The samples, sealed in NMR tubes, were individually placed in an integrating sphere (Thorlabs, IS200-4) with a PbSe detector (Thorlabs, PDA20H) on one port and directly excited by an 808 nm diode laser (Thorlabs, M9-808-0150) of 15 W/cm^2 average intensity under 1 kHz square-wave modulation. The detector signal S, with and without a silicon window on the detector port, was recorded with the sample and with a DCM blank. […] The photoluminescence quantum yield is therefore SS,Si/(SD−SS)×( ? 808/ ? λS)×T^−1 where the subscripts S, D and Si respectively denote the sample, DCM blank, and silicon window. R is the wavelength-dependent PbSe detector responsivity, T is the total emission power transmitted by the silicon window, and λS is the average emission wavelength determined by integration of the spectrum. The detector responsivity is linear with wavelength in this spectral range so that ? 808/ ? λS=808/λS. Due to the spectral overlap between the sample emission and the soft absorption edge of silicon, we calculate T explicitly as ∫E(λ)dλ×
where E(λ) is the normalized sample emission spectrum and T(λ) is the T(λ) normalized silicon window transmission spectrum.
Comparative results for the diradical dication PtTTFtt against a conventional near IR dye (IR 26) provide PLQY of 0.09% in oxygenated 1,2-dichloroethane for compound 2 (PtTTFtt) in comparison to 0.05% for IR 26, as illustrated in FIG. 10.

[2] = 1,2-dichloroethane, background statement; cited from earlier work
[3] = 1,2-dichloroethane, background statement; cited from earlier work; remark: listed apart in the source
[4] = Cell viability assay after 72 hr treatment; type: cell-based; conditions: 1% DMSO solution, preliminary
Source text: FIG. 21 is a cell viability assay of compound 4 after 72 hr treatment, using 1% DMSO solution in accordance with certain disclosed embodiments.

[5] = Stability of compound 4 (irradiation, air, serum, buffer, water); type: physicochemical
[6] = Reactivity in the presence of small nucleophiles and ubiquitin (preliminary proteomics studies); conditions: ubiquitin

ClC1=C(/C=C/c2cc(-c3ccccc3)[s+]c3ccccc23)CCC/C1=C\C=C1/C=C(c2ccccc2)Sc2ccccc21.[O-][Cl+3]([O-])([O-])[O-] [IR 26, 4-(7-(2-phenyl-4H-1-benzothiopyran-4-ylidene)-4-chloro-3,5-trimethylene-1,3,5-heptatrienyl)-2-phenyl-1-benzothiopyrylium perchlorate]
photoluminescence quantum yield (PLQY) ([1]; oxygenated 1,2-dichloroethane): 0.05%
PLQY [2]: 0.05%
emission [3]: around 1130 nm

(Pt{1,5-cyclooctadiene})2 tetrathiafulvalene-2,3,6,7 tetrathiolate diradical dication [Compound 4]
toxicity [4]: nontoxic
stability to air, fetal bovine serum and phosphate buffer [5]: demonstrated
persistence of photoluminescence ([5]; continuous irradiation): 21 h
stability to water and air ([5]; crystallized out of 1:2 MeCN:water over 6 months): remarkable stability
integrity after exposure to proteins and small nucleophiles [6]: remains intact

[(Pt{P(4-CF3Ph)3}2)2TTFtt][BAr^F4]2 [Compound 3]
photoluminescence quantum yield (PLQY) ([1]; 57 μM, dichloromethane, 298K, anaerobic conditions, highest of compounds 1-3): 0.43%

[(Pt{dppe})2TTFtt][BAr^F4]2 [Compound 2]
photoluminescence quantum yield (PLQY) ([1]; oxygenated 1,2-dichloroethane): 0.09%
